Experimental data taken from US20090270306A1, “Glass Storage” (priority 2005, published 2009).
Read-outs that look alike come from different tables or passages of the source.

What was measured:
[1] = initial pKa, cited from earlier work
[2] = pH behaviour on addition of sodium hydroxide (FIG. 1); type: physicochemical; details: 0.2 g in 200 ml water, 0.1M sodium hydroxide added; during almost the entire addition
[3] = 1% solution in water
[4] = other suitable buffer compounds (Table 3)
[5] = buffers tested for stain inhibitor performance (Table 1)

Row | SMILES | pKa [1, 4] | pKa [1, 5] | further results
1 | O=S(=O)(O)CCNC1CCCCC1 [CHES, 2-(cyclohexylamino) ethanesulphonic acid] | 9.5 | – | –
2 | O=C(O)CNC(CO)(CO)CO [Tricine, N-[tris (hydroxymethyl)methy] glycine] | – | 8.2 | –
3 | O=S(=O)(O)CCCNC(CO)(CO)CO [TAPS, N-[tris(hydroxymethyl)methyl]-3-aminopropanesulphonic acid] | – | 8.4 | –
4 | O=C(O)CCCCC(=O)O [adipic acid] | – | – | pH during addition of alkali [2]: < 5; pH of solution [3]: 2.8
5 | O=S(=O)(O)CC(O)CN1CCN(CC(O)CS(=O)(=O)O)CC1 (stereo not drawn) [POPSO, piperazine-N-N′-bis (2-hydroxypropanesulphonic acid)] | 7.8 | – | –
